Values of other authors in patent US20240082296A1, “TREATMENT OF MUSCLE ATROPHY USING DEXTRAN SULFATE” (TX MEDIC AB, priority 2020, published 2024).

Tested on: mouse model of muscle atrophy
Conditions: after 2 weeks of treatment; cited from earlier work

Question: For “recombinant HGF: recombinant hepatocyte growth factor, a naturally occurring neuroprotective and myogenic growth factor”, which “increase in muscle mass” value is on record?
Answer: 18%
